The results in this text go back to patent publication US20020026052A1, “3-cyanoquinolines, 3-cyano-1,6-naphthyridines, and 3-cyano-1,7-naphthyridines as protein kinase inhibitors” (American Home Products Corporation, priority 2000, published 2002).

Regarding `COc1cc(Nc2c(C#N)cnc3cc(-c4ccc(CN5CCOCC5)c(CN5CCOCC5)c4)ccc23)c(Cl)cc1Cl` [Example 34, 7-[3,4-bis(4-morpholinylmethyl)phenyl]-4-(2,4-dichloro-5-methoxyanilino)-3-quinolinecarbonitrile], the melting point lay within 198 to 200 °C.
The same measure for `CCN1CCN(c2ccc(-c3ccc4c(Nc5ccc(Sc6nccn6C)c(Cl)c5)c(C#N)cnc4c3)cn2)CC1` [Example 195, 4-{3-Chloro-4-[(1-methyl-1H-imidazol-2-yl)sulfanyl]anilino}-7-[6-(4-ethyl-1-piperazinyl)-3-pyridinyl]-3-quinolinecarbonitrile]: 254 to 256 °C; for `COC(=O)C1CCN(Cc2ccc(-c3ccc4c(Nc5ccc(Sc6nccn6C)c(Cl)c5)c(C#N)cnc4c3)nc2)CC1` [Example 107, Methyl 1-{[6-(4-{3-chloro-4-[(1-methyl-1H-imidazol-2-yl)sulfanyl]anilino}-3-cyano-7-quinolinyl)-3-pyridinyl]methyl}-4-piperidinecarboxylate]: 135 to 137 °C.
The same measure for `N#Cc1cnc2cc(-c3cncc(CN4CCOCC4)c3)ccc2c1Nc1ccc(Oc2ccccc2)cc1` [Example 48, 7-[5-(4-Morpholinylmethyl)-3-pyridinyl]-4-(4-phenoxyanilino)-3-quinolinecarbonitrile]: 185 to 187 °C; for `COc1cc(Nc2c(C#N)cnc3cc(-c4cnc(CN5CCN(C)CC5)n4C)ccc23)c(Cl)cc1Cl` [Example 227, 4-(2,4-Dichloro-5-methoxyanilino)-7-{1-methyl-2-[(4-methyl-1-piperazinyl)methyl]-1H-imidazol-5-yl}-3-quinolinecarbonitrile]: 156 to 159 °C; for `CCN1CCN(c2ccc(-c3ccc4c(Nc5ccc(Sc6nccn6C)c(Cl)c5)c(C#N)cnc4c3)nc2)CC1` [Example 108, 4-({3-Chloro-4-[(1-methyl-1H-imidazol-2-yl)sulfanyl]phenyl}amino)-7-[5-(4-ethyl-1-piperazinyl)-2-pyridinyl]-3-quinolinecarbonitrile]: 246 to 248 °C.
Compound `Cn1ccnc1Sc1ccc(Nc2c(C#N)cnc3ccc(-c4ccc(N5CCOCC5)nc4)cc23)cc1Cl` [Example 184, 4-({3-Chloro-4-[(1-methyl-1H-imidazol-2-yl)sulfanyl]phenyl}amino)-6-[6-(4-morpholinyl)-3-pyridinyl]-3-quinolinecarbonitrile] returned a melting point of 276 to 278 °C.
The same measure for `Cn1ccnc1Sc1ccc(Nc2c(C#N)cnc3cc(-c4ccc(CN5CCOCC5)nc4)ccc23)cc1Cl` [Example 109, 4-({3-chloro-4-[(1-methylimidazol-2-yl)sulfanyl]phenyl}amino)-7-[6-(4-morpholinylmethyl)-3-pyridinyl]-3-quinolinecarbonitrile]: 233 to 235 °C.
With `N#Cc1cnc2cc(-c3ccc(CN4CCOCC4)cn3)ccc2c1Nc1ccc(Oc2ccccc2)cc1` [Example 56, 7-[5-(4-Morpholinylmethyl)-2-pyridinyl]-4-(4-phenoxyanilino)-3-quinolinecarbonitrile], the melting point lay in the range of 219 to 221 °C.
The compound `COc1cc(Nc2c(C#N)cnc3cc(-c4cnc(C=O)n4C)ccc23)c(Cl)cc1Cl` [Example 96, 4-(2,4-Dichloro-5-methoxyanilino)-7-(2-formyl-1-methyl-1H-imidazol-5-yl)-3-quinolinecarbonitrile] yielded a melting point of 186 to 189 °C.
In the case of `CN(CCO)Cc1ccc(-c2ccc3c(Nc4ccc(Sc5nccn5C)c(Cl)c4)c(C#N)cnc3c2)nc1` [Example 106, 4-({3-Chloro-4-[(1-methyl-IH-irnidazol-2-yl)sulfanyl]phenyl}amino)-7-(5-{[(2-hydroxyethyl) (methyl)amino]methyl}-2-pyridinyl)-3-quinolinecarbonitrile], the melting point lay in the range of 197 to 199 °C.
The same measure for `Cn1ccnc1Sc1ccc(Nc2c(C#N)cnc3cc(-c4ccc(CN5CCC(O)CC5)nc4)ccc23)cc1Cl` [Example 223, 4-({3-Chloro-4-[(1-methyl-1H-imidazol-2-yl)sulfanyl]phenyl}amino)-7-{6-[(4-hydroxy-1-piperidinyl)methyl]-3-pyridinyl}-3-quinolinecarbonitrile]: 242 to 244 °C.
Regarding `COc1cc(Nc2c(C#N)cnc3ccc(-c4csc(C=O)c4)cc23)c(Cl)cc1Cl` [Example 45, 4-(2,4-Dichloro-5-methoxyanilino)-6-(5-formyl-3-thienyl)-3-quinolinecarbonitrile], the melting point was 233 to 237 °C.
`COc1cc(Nc2c(C#N)cnc3cc(-c4ccc(N5CCOCC5)nc4)ccc23)c(Cl)cc1Cl` [Example 185, 4-(2,4-Dichloro-5-methoxyanilino)-7-[6-(4-morpholinyl)-3-pyridinyl]-3-quinolinecarbonitrile] yielded a melting point above 260 °C.
`COc1cc(Nc2c(C#N)cnc3cc(-c4cncc(CN5CCOCC5)c4)ccc23)c(Cl)cc1Cl` registered a melting point of 141 to 143 °C.
The same measure for `CN1CCN(c2ccc(-c3ccc4c(Nc5ccc(Sc6nccn6C)c(Cl)c5)c(C#N)cnc4c3)cn2)CC1` [Example 196, 4-{3-Chloro-4-[(1-methyl-1H-irnidazol-2-yl)sulfanyl]anilino}-7-[6-(4-methyl-1-piperazinyl)-3-pyridinyl]-3-quinolinecarbonitrile]: 227 to 279 °C.
Consider `CN1CCN(Cc2ccc(-c3ccc4c(Nc5ccc(Sc6nccn6C)c(Cl)c5)c(C#N)cnc4c3)cc2)CC1` [Example 135, 4-{3-chloro-4-[(1-methylimidazol-2-yl)sulfanyl]anilino}-7-{4-[(4-methyl-1-piperazinyl)methyl]phenyl}-3-quinolinecarbonitrile], for which the melting point lay in the range of 202 to 203 °C.
Turning to `COc1cc(Nc2c(C#N)cnc3cc(-c4ccc(CN5CCOCC5)nc4)ccc23)c(Cl)cc1Cl`, the melting point was in the range of 195 to 197 °C.
Consider `COc1cc2c(Nc3ccc(Sc4nccn4C)c(Cl)c3)c(C#N)cnc2cc1-c1csc(CN2CCOCC2)c1` [Example 125, 4-{3-chloro-4-[(1-methylimidazol-2-yl)sulfanyl]anilino}-6-methoxy-7-[5-(4-morpholinylmethyl)-3-thienyl]-3-quinolinecarbonitrile], for which the melting point was in the range of 238 to 240 °C.
`Cn1ccnc1Sc1ccc(Nc2c(C#N)cnc3cc(-c4ccc(C(=O)N5CCOCC5)cc4)ccc23)cc1Cl` [Example 129, 4-({3-Chloro-4-[(i-methyl-IH-imidazol-2-yl)sulfanyl]phenyl}amino)-7-[4-(4-morpholinylcarbonyl)phenyl]-3-quinolinecarbonitrile] returned a melting point of 98 to 101 °C.
As for `COc1cc(Nc2c(C#N)cnc3cc(-c4cnc(CN5CCOCC5)n4C)ccc23)c(Cl)cc1Cl` [Example 226, 4-(2,4-Dichloro-5-methoxyanilino)-7-[1-methyl-2-(4-morpholinylmethyl)-1H-imidazol-5-yl]-3-quinolinecarbonitrile], the melting point was in the range of 140 to 143 °C.
Compound `CN1CCN(Cc2cccnc2-c2ccc3c(Nc4ccc(Sc5nccn5C)c(Cl)c4)c(C#N)cnc3c2)CC1` [Example 209, 4-({3-Chloro-4-[(I -methyl-1H-imidazol-2-yl)sulfanyl]phenyl}amino)-7-{3-[(4-methyl-1-piperazinyl)methyl]-2-pyridinyl}-3-quinolinecarbonitrile] gave a melting point of 217 to 220 °C.
The compound `Cn1ccnc1Sc1ccc(Nc2c(C#N)cnc3cc(-c4ccc(CN5CCC(O)CC5)cc4)ccc23)cc1Cl` [Example 134, 4-{3-Chloro-4-[(1-methyl-LH-imidazol-2-yl)sulfanyl]anilino}-7-{4-[(4-hydroxy-1-piperidinyl)methyl]phenyl}-3-quinolinecarbonitrile] showed a melting point of 230 to 232 °C.
Compound `Cn1ccnc1Sc1ccc(Nc2c(C#N)cnc3cc(-c4ccc(CN5CCC(C(=O)O)CC5)cn4)ccc23)cc1Cl` [Example 175, 1-{[6-(4-{3-chloro-4-[(1-methyl-1H-imidazol-2-yl)sulfanyl]anilino}-3-cyano-7-quinolinyl)-3-pyridinyl]methyl}-4-piperidinecarboxylic acid] displayed a melting point of 166 to 168 °C.
For `COc1cc(Nc2c(C#N)cnc3cc(-c4ccc(CN5CCN(C)CC5)cn4)ccc23)c(Cl)cc1Cl`, the melting point lay in the range of 212 to 215 °C.
As to `COc1cc(Nc2c(C#N)cnc3cc(-c4cc(CN5CCOCC5)ccn4)ccc23)c(Cl)cc1Cl`, the melting point is 180 to 182 °C.
Regarding `CN1CCN(Cc2ccnc(-c3ccc4c(Nc5ccc(Sc6nccn6C)c(Cl)c5)c(C#N)cnc4c3)c2)CC1` [Example 206, 4-({3-Chloro-4-[(1-methyl-1H-imidazol-2-yl)sulfanyl]phenyl}amino)-7-{4-[(4-methyl-I -piperazinyl)methyl]-2-pyridinyl}-3-quinolinecarbonitrile], the melting point fell in the range of 208 to 210 °C.
The same measure for `COc1cc(Nc2c(C#N)cnc3cc(-c4ccc(Cn5ccnn5)cc4)ccc23)c(Cl)cc1Cl` [Example 103, 4-[(2,4-Dichloro-5-methoxyphenyl)amino]-7-[4-(1H-1,2,3-triazol-1-ylmethyl)phenyl]-3-quinolinecarbonitrile]: 239 to 240 °C; for `COc1cc(Nc2c(C#N)cnc3cc(-c4ccc(N5CCN(C)CC5)nc4)ccc23)c(Cl)cc1Cl` [Example 198, 4-(2,4-Dichloro-5-methoxyanilino)-7-[6-(4-methyl-1-piperazinyl)-3-pyridinyl]-3-quinolinecarbonitrile]: 240 to 242 °C; for `COc1cc(Nc2c(C#N)cnc3cc(-c4ccc(/C=C/CN5CCOCC5)s4)ccc23)c(Cl)cc1Cl` [Example 21, 4-(2,4-Dichloro-5-methoxyanilino)-7-{5-[(E)-3-(4-morpholinyl)-1-propenyl]-2-thienyl}-3-quinolinecarbonitrile]: 145 °C.
The same measure for `N#Cc1cnc2cc(C#CCO)ccc2c1Nc1ccc(Cl)cc1Cl` [Example 14, 4-(2,4-Dichloroanilino)-7-(3-hydroxy-1-propynyl)-3-quinolinecarbonitrile]: 251 to 253 °C; for `Cn1ccnc1Sc1ccc(Nc2c(C#N)cnc3cc(-c4ccc(C=O)cc4)ccc23)cc1Cl` [Example 62, 4-{3-chloro-4-[(1-methyl-1H-imidazol-2-yl)sulfanyl]anilino}-7-(4-formylphenyl)-3-quinolinecarbonitrile]: > 240 °C (dec.).

Broadly, the melting point is the temperature, or range, at which the solid turns liquid.
